One compound from BindingDB's records for doi:10.1016/j.bmcl.2015.04.102 (Arena Pharmaceuticals, 2015) can be followed below.

A short description of the data set: Displacement of [3H]-Astemizole from human ERG. For orientation: In a radioligand displacement assay an active substance lowers the binding of a labelled ligand.

Usually IC50 stands for the concentration at which inhibition is half-maximal. A higher IC50 goes with weaker potency in that assay. Compound `C[C@@H](OC(=O)N1CCC(O[C@H]2CC[C@H](Oc3cnc(S(C)(=O)=O)cn3)CC2)CC1)C(F)(F)F` gave an IC50 above 1000 µM.
